Structures are written as SMILES. Where “and” joins values, the source holds several entries; their conditions need not be identical. Equal entries are not always repeated. Toxic doses and inconclusive results are not listed.

T/C data for 10 compounds are collected here from PubChem BioAssay AID328 (DTP/NCI, 2004).

The subject of this experiment is BDF1 mice, P388 leukemia ip, median survival T/C. As to the kind of experiment: NCI In Vivo Anticancer Drug Screen. Data for tumor model P388 Leukemia (intraperitoneal) in B6D2F1 (BDF1) mice. The settings on record: endpoint: median survival time, higher = longer survival. Summed up: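 Transplantable tumour in mice; compound vs vehicle dosing; survival scored; ratio of treated to control reported.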

Where [1] appears, read: dose: 25.0 mg/kg/injection, schedule: Q04DX003 (ip), vehicle: saline with Tween-80.
The mark [2] stands for this setting: dose: 50.0 mg/kg/injection, schedule: Q04DX003 (ip), vehicle: saline with Tween-80.
[3] abbreviates: dose: 50.0 mg/kg/injection, schedule: Q04DX003 (ip), vehicle: saline.
[4] abbreviates: dose: 25.0 mg/kg/injection, schedule: Q01DX009 (ip), vehicle: water.
Setting [5] is: dose: 25.0 mg/kg/injection, schedule: Q04DX003 (ip), vehicle: water.
Where [6] appears, read: dose: 50.0 mg/kg/injection, schedule: Q01DX009 (ip), vehicle: water.
The mark [7] stands for this setting: dose: 50.0 mg/kg/injection, schedule: Q04DX003 (ip), vehicle: water.
Where [8] appears, read: dose: 100.0 mg/kg/injection, schedule: Q04DX003 (ip), vehicle: water.
The mark [9] stands for this setting: dose: 200.0 mg/kg/injection, schedule: Q04DX003 (ip), vehicle: water.

As to `O=C1N(Cl)C(=O)C(c2ccc(Cl)cc2)(c2ccc(Cl)cc2)N1Cl`, the T/C is, setting by setting: (dose: 22.0 mg/kg/injection, schedule: Q04DX003 (ip), vehicle: saline with Tween-80) 115 % of control; (dose: 22.0 mg/kg/injection, schedule: Q04DX003 (ip), vehicle: saline) 91 % of control; (dose: 25.0 mg/kg/injection, schedule: Q02DX005 (ip), vehicle: Klucel (hydroxypropylcellulose) (HPC)) 110 % of control; (dose: 25.0 mg/kg/injection, schedule: Q04DX003 (ip), vehicle: Klucel (hydroxypropylcellulose) (HPC)) 105 % of control; under setting [1], 104 % of control; (dose: 30.0 mg/kg/injection, schedule: Q04DX003 (ip), vehicle: Klucel (hydroxypropylcellulose) (HPC)) 100 % of control. For the same compound, the T/C was 123 % of control (dose: 33.0 mg/kg/injection, schedule: Q04DX003 (ip), vehicle: saline with Tween-80); 116 % of control (dose: 33.0 mg/kg/injection, schedule: Q04DX003 (ip), vehicle: saline); 120 % of control (dose: 38.5 mg/kg/injection, schedule: Q04DX003 (ip), vehicle: saline with Tween-80); 124 % of control (dose: 50.0 mg/kg/injection, schedule: Q02DX005 (ip), vehicle: Klucel (hydroxypropylcellulose) (HPC)); 96 % of control (dose: 50.0 mg/kg/injection, schedule: Q04DX003 (ip), vehicle: Klucel (hydroxypropylcellulose) (HPC)); 153 % of control under setting [2]. Besides, the T/C was 120 % of control under setting [3]; 111 % of control (dose: 60.0 mg/kg/injection, schedule: Q04DX003 (ip), vehicle: Klucel (hydroxypropylcellulose) (HPC)); 150 % of control (dose: 75.0 mg/kg/injection, schedule: Q04DX003 (ip), vehicle: saline with Tween-80); 120 % of control (dose: 75.0 mg/kg/injection, schedule: Q04DX003 (ip), vehicle: saline); 151 % of control (dose: 100.0 mg/kg/injection, schedule: Q02DX005 (ip), vehicle: Klucel (hydroxypropylcellulose) (HPC)); 96 % of control (dose: 100.0 mg/kg/injection, schedule: Q04DX003 (ip), vehicle: Klucel (hydroxypropylcellulose) (HPC)). The T/C reads like this: (dose: 100.0 mg/kg/injection, schedule: Q04DX003 (ip), vehicle: saline sonified) 160 % of control; (dose: 100.0 mg/kg/injection, schedule: Q04DX003 (ip), vehicle: saline with Tween-80) 150 % of control and 154 % of control; (dose: 132.0 mg/kg/injection, schedule: Q02DX005 (ip), vehicle: Klucel (hydroxypropylcellulose) (HPC)) 150 % of control; (dose: 132.0 mg/kg/injection, schedule: Q04DX003 (ip), vehicle: saline with Tween-80) 112 % of control and 117 % of control; (dose: 200.0 mg/kg/injection, schedule: Q01DX009 (ip), vehicle: Klucel (hydroxypropylcellulose) (HPC)) 156 % of control; (dose: 200.0 mg/kg/injection, schedule: Q02DX005 (ip), vehicle: Klucel (hydroxypropylcellulose) (HPC)) 155 % of control and 171 % of control. The T/C is 98 % of control (dose: 200.0 mg/kg/injection, schedule: Q04DX003 (ip), vehicle: Klucel (hydroxypropylcellulose) (HPC)); 180 % of control (dose: 200.0 mg/kg/injection, schedule: Q04DX003 (ip), vehicle: saline sonified); 95 % of control (dose: 300.0 mg/kg/injection, schedule: Q01DX009 (ip), vehicle: Klucel (hydroxypropylcellulose) (HPC)); 152 % of control (dose: 300.0 mg/kg/injection, schedule: Q02DX005 (ip), vehicle: Klucel (hydroxypropylcellulose) (HPC)); 114 % of control (dose: 300.0 mg/kg/injection, schedule: Q04DX003 (ip), vehicle: Klucel (hydroxypropylcellulose) (HPC)); 100 % of control (dose: 380.0 mg/kg/injection, schedule: Q04DX003 (ip), vehicle: Klucel (hydroxypropylcellulose) (HPC)). Moreover, the T/C (dose: 400.0 mg/kg/injection, schedule: Q04DX003 (ip), vehicle: saline sonified) was 190 % of control.
Turning to `O=C1CCC2N1CCC1CCCCN12` (stereo not given), the T/C is 98 % of control (dose: 6.25 mg/kg/injection, schedule: Q01DX009 (ip), vehicle: water); 100 % of control (dose: 12.5 mg/kg/injection, schedule: Q01DX009 (ip), vehicle: water); 86 % of control under setting [4]; 107 % of control under setting [5]; 94 % of control under setting [6]; 118 % of control under setting [7]. Besides, the T/C reads like this: (dose: 100.0 mg/kg/injection, schedule: Q01DX009 (ip), vehicle: water) 91 % of control; under setting [8], 107 % of control; under setting [9], 109 % of control.
`CCOC(=O)CSc1cc(C)c2c(N)c(C(=O)OCC)sc2n1`: the T/C by setting is: (dose: 50.0 mg/kg/injection, schedule: Q01DX005 (ip), vehicle: saline with Tween-80) 88 % of control; (dose: 100.0 mg/kg/injection, schedule: Q01DX005 (ip), vehicle: saline with Tween-80) 91 % of control; (dose: 200.0 mg/kg/injection, schedule: Q01DX005 (ip), vehicle: saline with Tween-80) 89 % of control.
For the compound `CC(C)CC(CC(C)C)NCC(C)OC(=O)c1ccc(N)cc1` (stereo not given), the T/C (dose: 6.25 mg/kg/injection, schedule: Q01DX009 (ip), vehicle: saline with Tween-80) was 104 % of control; the T/C (dose: 6.25 mg/kg/injection, schedule: Q04DX003 (ip), vehicle: saline with Tween-80) is 107 % of control; the T/C (dose: 12.5 mg/kg/injection, schedule: Q01DX009 (ip), vehicle: saline with Tween-80) was 93 % of control; the T/C (dose: 12.5 mg/kg/injection, schedule: Q04DX003 (ip), vehicle: saline with Tween-80) is 114 % of control; the T/C (dose: 25.0 mg/kg/injection, schedule: Q01DX009 (ip), vehicle: saline with Tween-80) is 104 % of control; the T/C under setting [1] is 114 % of control. Also, the T/C under setting [2] is 114 % of control.
`O=C(O)c1cc(I)cc(I)c1`: the T/C is, setting by setting: (dose: 100.0 mg/kg/injection, schedule: Q04DX003 (ip), vehicle: saline) 100 % of control; (dose: 200.0 mg/kg/injection, schedule: Q04DX003 (ip), vehicle: saline) 100 % of control; (dose: 400.0 mg/kg/injection, schedule: Q04DX003 (ip), vehicle: saline) 160 % of control.
Regarding `COc1cccc(C(O)c2ccncc2C)c1OC` (stereo not given), the T/C by setting is: (dose: 12.5 mg/kg/injection, schedule: Q04DX003 (ip), vehicle: water) 103 % of control; under setting [5], 97 % of control; under setting [7], 102 % of control; under setting [8], 112 % of control; under setting [9], 97 % of control.
Take `COc1ccc2c(c1OC)CN(C)CCc1cc3c(cc1C(=O)C2)OCO3`: the T/C runs as follows: (dose: 18.75 mg/kg/injection, schedule: Q01DX009 (ip), vehicle: saline with Tween-80) 95 % of control; (dose: 37.5 mg/kg/injection, schedule: Q01DX009 (ip), vehicle: saline with Tween-80) 95 % of control.
Regarding `COc1ccc(CN(CCOC(=O)c2ccc(OC)cc2)CCN(CCOC(=O)c2ccc(OC)cc2)Cc2ccc(OC)cc2)cc1`, the T/C was 89 % of control (dose: 25.0 mg/kg/injection, schedule: Q01DX009 (ip), vehicle: other); 93 % of control under setting [4]; 95 % of control and 100 % of control under setting [5]; 91 % of control (dose: 50.0 mg/kg/injection, schedule: Q01DX009 (ip), vehicle: other); 101 % of control under setting [6]; 86 % of control (dose: 100.0 mg/kg/injection, schedule: Q01DX009 (ip), vehicle: other). In addition, the T/C runs as follows: (dose: 200.0 mg/kg/injection, schedule: Q01DX009 (ip), vehicle: other) 94 % of control; (dose: 200.0 mg/kg/injection, schedule: Q01DX009 (ip), vehicle: water) 110 % of control; (dose: 300.0 mg/kg/injection, schedule: Q04DX003 (ip), vehicle: water) 107 % of control; (dose: 400.0 mg/kg/injection, schedule: Q01DX009 (ip), vehicle: water) 95 % of control.
For the compound `N#Cc1c(NN)n(C2OC(CO)C(O)C2O)c2ncnc(N)c12` (stereo not given), the T/C under setting [3] was 100 % of control and the T/C (dose: 83.0 mg/kg/injection, schedule: Q04DX003 (ip), vehicle: saline) is 100 % of control.
With `O=[N+]([O-])c1cccc(N/N=C\c2c(Cl)n(-c3ccccc3)c3ccccc23)c1`, the T/C runs as follows: (dose: 100.0 mg/kg/injection, schedule: Q04DX002 (ip), vehicle: Klucel (hydroxypropylcellulose) (HPC)) 97 % of control; (dose: 200.0 mg/kg/injection, schedule: Q04DX002 (ip), vehicle: Klucel (hydroxypropylcellulose) (HPC)) 93 % of control; (dose: 400.0 mg/kg/injection, schedule: Q04DX002 (ip), vehicle: Klucel (hydroxypropylcellulose) (HPC)) 99 % of control.
